Consider two compounds from patent US20260226056A1, “SUBSTITUTED 1H-PYRAZOLE-4-CARBOXAMIDES AS SARM1 INHIBITORS” (DISARM THERAPEUTICS, INC., priority 2023, published 2026).

Where only a bound is given, the exact number is not on record here.

The experiment has as its target T1, hSARM1 (Homo sapiens, UniProt Q6SZW1).
T1 construct: This assay makes use of full length SARM1, which encompasses the ARM, SAM and TIR domains; made in house; host or cells: NRK1-HEK293T cells (transient transfection; cleared lysate used as enzyme)
T1 sequence (Q6SZW1 28-724): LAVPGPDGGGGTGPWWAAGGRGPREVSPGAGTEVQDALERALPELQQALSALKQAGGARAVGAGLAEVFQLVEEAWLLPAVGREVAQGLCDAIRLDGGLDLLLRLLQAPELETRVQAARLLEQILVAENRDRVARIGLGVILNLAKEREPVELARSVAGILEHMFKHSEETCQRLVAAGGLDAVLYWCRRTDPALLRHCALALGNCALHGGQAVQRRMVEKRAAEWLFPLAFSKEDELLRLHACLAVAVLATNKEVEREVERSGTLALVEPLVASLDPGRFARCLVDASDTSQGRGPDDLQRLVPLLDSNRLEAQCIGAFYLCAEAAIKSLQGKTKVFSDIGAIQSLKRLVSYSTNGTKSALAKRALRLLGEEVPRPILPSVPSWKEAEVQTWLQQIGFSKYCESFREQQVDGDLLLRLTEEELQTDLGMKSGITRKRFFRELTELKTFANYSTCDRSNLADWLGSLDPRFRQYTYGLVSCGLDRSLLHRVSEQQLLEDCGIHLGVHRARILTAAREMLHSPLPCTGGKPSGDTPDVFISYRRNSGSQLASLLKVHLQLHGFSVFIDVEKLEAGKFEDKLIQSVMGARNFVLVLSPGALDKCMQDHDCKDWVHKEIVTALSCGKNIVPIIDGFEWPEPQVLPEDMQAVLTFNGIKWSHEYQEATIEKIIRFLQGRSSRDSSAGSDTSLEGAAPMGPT
As to the kind of experiment: ARM-SAM-TIR SARM1 IC50 Assay (NADase activity, NAD+ cleavage, RapidFire MS). The conditions noted are these: ARM-SAM-TIR lysate 5 μg/mL, 2 hrs. pre-incubation with compound, 5 μM NAD+, 2 hrs. incubation. The class given is biochemical. The method, then:
This describes an assay of ARM-SAM-TIR NADase activity and use of this assay to measure the efficacy of compounds of the present invention to block SARM1 mediated NAD+ cleavage. This assay was optimized in such a way as to characterize the efficacy of the compounds of the present invention to inhibit SARM1 activity and to calculate an IC50 value for each compound. This assay makes use of full length SARM1, which encompasses the ARM, SAM and TIR domains.
NRK1-HEK293T cells were seeded onto 150 cm^2 plates at 20×10^6 cells per plate. The next day, the cells were transfected with 15 μg ARM-SAM-TIR expression plasmid (SEQ ID NO: 1 as disclosed in WO 2019/236879, Pages 77-81; Paragraph) [0310]).
The cultures were supplemented with 1 mM NR at time of transfection to minimize toxicity from ARM-SAM-TIR overexpression. Forty-eight hours after transfection, cells were harvested, pelleted by centrifugation at 1,000 rpm (Sorvall ST 16R centrifuge, Thermo Fisher), and washed once with cold PBS (0.01 M phosphate buffered saline NaCl 0.138 M; KCl 0.0027 M; pH 7.4). The cells were resuspended in PBS with protease inhibitors (Complete™ protease inhibitor cocktail, Roche product #11873580001) and cell lysates were prepared by sonication (Branson Sonifer 450, output=3, 20 episodes of stroke). The lysates were centrifuged (12,000×g for 10 min at 4° C.) to remove cell debris and the supernatants (containing ARM-SAM-TIR protein) were stored at −80° C. for later use in the in vitro ARM-SAM-TIR NADase assay (see below). Protein concentration was determined by the Bicinchoninic (BCA) method and used to normalize lysate concentrations.
The enzymatic assay was performed in a 384-well polypropylene plate in Dulbecco's PBS buffer in a final assay volume of 20 μL. ARM-SAM-TIR lysate with a final concentration of 5 μg/mL was pre-incubated with the respective compound at 1% DMSO final assay concentration over 2 hrs. at room temperature. The reaction was initiated by addition of 5 μM final assay concentration of NAD+ as substrate. After a 2 hrs. ambient temperature incubation, the reaction was terminated with 40 μL of stop solution of 7.5% trichloroacetic acid in acetonitrile. The NAD+ and ADPR concentrations were analyzed by a RapidFire High Throughput Mass Spectrometry System (Agilent Technologies, Santa Clara, CA) using an API4000 triple quadrupole mass spectrometer (AB Sciex Framingham, MA).
Compounds having an activity designated as “A” provided an IC50<50 nM; compounds having an activity designated as “B” provided an IC50 51-100 nM; compounds having an activity designated as “C” provided an IC50 101-500 nM; compounds having an activity designated as “D” provided an IC50 501-1000 nM; compounds having an activity designated as “E” provided an IC50>1000 nM.

The term IC50 denotes the concentration needed to halve the response being measured.

`O=C1NCN(C(=O)CCc2cnc(Cl)c(F)c2)c2[nH]nc(-c3ccncc3)c21` [Example 27, 7-(3-(6-Chloro-5-fluoropyridin-3-y1)propanoyl)-3-(pyridin-4-y1)-1,5,6,7-tetrahydro-4H-pyrazolo[3,4-d]pyrimidin-4-one]: the IC50 is more than 1000 nM. The value for `O=C1NCN(C(=O)CCc2ccc(Cl)nc2)c2[nH]nc(-c3ccncc3)c21` [Example 28, 7-(3-(6-Chloropyridin-3-yl)propanoyl)-3-(pyridin-4-yl)-1,5,6,7-tetrahydro-4H-pyrazolo[3,4-d]pyrimidin-4-one] was more than 1000 nM.
